Consider ten molecules from patent US8530423B2, “Anxiolytic compositions containing αs1-casein-derived peptides” (Universite de Lorraine, priority 2008, dated 2013).

Like-named read-outs stand apart in the source and are kept apart here. No end group written: not given here.

Assay [1] relates to Wistar rat. The assay is described as follows: Light/dark box test. The format is in vivo. The settings on record: for time spent in the familiar compartment / time spent in the unfamiliar, aversive compartment: p<0.05, n=12. The source says:
The light/dark tests are based on the innate aversion of rodents for strongly illuminated environments and on their spontaneous exploratory behavior in response to mild stress factors such as a new environment and light. The light/dark box device enables the exploratory behavior of the rodent to be studied with regard to an unfamiliar aversive compartment (strongly illuminated with white light) after habituation in a non-aversive compartment (dark), which then becomes familiar [BOURIN and HASCOET, 2003 (17)]. Classic anxiolytics can be detected by using this device.
The light/dark box measures 65×49×35 cm (h×L×l) and is separated into two identical compartments by a plate with three 8×8-cm doors. The ground is covered with sawdust. Each rat is placed for 24 hours in the rear compartment of the box, and the doors communicating with the front compartment are made inaccessible. The rear compartment thus becomes the familiar compartment. The animal is fed and hydrated ad libitum. On the day of the test, the rat, after treatment, is again placed in the familiar compartment and the doors communicating with the front compartment (unfamiliar) are made accessible so that the animal can freely explore the environment. The unfamiliar compartment is made aversive by illumination with white light having an intensity of 1500 lx. The animals are observed for 10 minutes and the time spent in each of the compartments is measured.
The animals receive their respective treatments intraperitoneally one-half hour before the communication between the familiar compartment and the unfamiliar compartment is opened.

The conditions of assay [2]: literature (ZIOUDROU et al., LOUKAS et al.); cited from earlier work.
The test system of assay [3] is rat. The assay can be described thus: in vivo behavioral tests in the rat. The settings on record: this application.
The test system of assay [4] is Wistar rat. The assay can be described thus: Elevated cross maze test. It is filed as in vivo. The settings on record: for number of entries into the open arms / time spent in the open arms: p<0.05. The source says:
The elevated cross maze test enables the density of the exploratory behavior in a new aversive situation to be measured [PELLOW et al., 1985 (16)]. The experiment exploits the conflict, in rodents, between the fear of open spaces and the desire to explore a new environment. The rat, placed at the center of the device, is forced to explore its environment. The open arms constitute an anxiety-producing environment, while this is not the case for the closed arms. The number of entries into all of the arms, the number of entries into the open arms, the number of entries into the closed arms, the time spent in the open arms, and the latency of entry into the first open arm constitute parameters reflecting the degree of anxiety of the animal.
The elevated cross maze, made of wood, consists of four branches at 90° to one another. The two open branches (45×10 cm) and the two closed branches (45×10 cm, surrounded by wood plates over a height of 40 cm) are arranged opposite one another. The central square measures 10×10 cm. The open branches are illuminated by a white light with an intensity of 500 lx. The elevated cross maze is located 50 cm from the ground.
The observations took place at between 9 and 11 o'clock in the morning in order to minimize the influence of the circadian rhythm. Before each passage through the elevated cross maze, the animal is placed for 10 minutes in an open field in order to stimulate its exploratory behavior. It is then placed in the central square of the elevated cross maze, and observed for 5 minutes. The cross maze is washed with 95% ethanol (v/v) between two passages so as to remove odors.
The animals receive their respective treatment intraperitoneally one-half hour before being placed in the open field.

The test system of assay [5] is rat. The settings on record: PCT/EP2007/063863; cited from earlier work.
For assay [6] the following is noted: EP 0714910; cited from earlier work.
In assay [7] the target is angiotensin-I converting enzyme (Homo sapiens, UniProt P12821). The settings on record: literature (MARUYAMA et al.); cited from earlier work.
[8] abbreviates: 0.5 mg/kg i.p. versus diazepam 1 mg/kg i.p.
[9] abbreviates: 0.5 mg/kg intraperitoneally, Wistar rat.
Setting [10] is: vehicle animals compared with animals treated 0.5 mg/kg intraperitoneally.
The mark [11] stands for this setting: vehicle animals compared with animals treated 0.5 mg/kg intraperitoneally, n=15.
Where [12] appears, read: vehicle animals compared with animals treated 1 mg/kg intraperitoneally.
The mark [13] stands for this setting: vehicle animals compared with animals treated 1 mg/kg intraperitoneally, n=15.

angiotensin-I converting enzyme, sequence (P12821 30-1306): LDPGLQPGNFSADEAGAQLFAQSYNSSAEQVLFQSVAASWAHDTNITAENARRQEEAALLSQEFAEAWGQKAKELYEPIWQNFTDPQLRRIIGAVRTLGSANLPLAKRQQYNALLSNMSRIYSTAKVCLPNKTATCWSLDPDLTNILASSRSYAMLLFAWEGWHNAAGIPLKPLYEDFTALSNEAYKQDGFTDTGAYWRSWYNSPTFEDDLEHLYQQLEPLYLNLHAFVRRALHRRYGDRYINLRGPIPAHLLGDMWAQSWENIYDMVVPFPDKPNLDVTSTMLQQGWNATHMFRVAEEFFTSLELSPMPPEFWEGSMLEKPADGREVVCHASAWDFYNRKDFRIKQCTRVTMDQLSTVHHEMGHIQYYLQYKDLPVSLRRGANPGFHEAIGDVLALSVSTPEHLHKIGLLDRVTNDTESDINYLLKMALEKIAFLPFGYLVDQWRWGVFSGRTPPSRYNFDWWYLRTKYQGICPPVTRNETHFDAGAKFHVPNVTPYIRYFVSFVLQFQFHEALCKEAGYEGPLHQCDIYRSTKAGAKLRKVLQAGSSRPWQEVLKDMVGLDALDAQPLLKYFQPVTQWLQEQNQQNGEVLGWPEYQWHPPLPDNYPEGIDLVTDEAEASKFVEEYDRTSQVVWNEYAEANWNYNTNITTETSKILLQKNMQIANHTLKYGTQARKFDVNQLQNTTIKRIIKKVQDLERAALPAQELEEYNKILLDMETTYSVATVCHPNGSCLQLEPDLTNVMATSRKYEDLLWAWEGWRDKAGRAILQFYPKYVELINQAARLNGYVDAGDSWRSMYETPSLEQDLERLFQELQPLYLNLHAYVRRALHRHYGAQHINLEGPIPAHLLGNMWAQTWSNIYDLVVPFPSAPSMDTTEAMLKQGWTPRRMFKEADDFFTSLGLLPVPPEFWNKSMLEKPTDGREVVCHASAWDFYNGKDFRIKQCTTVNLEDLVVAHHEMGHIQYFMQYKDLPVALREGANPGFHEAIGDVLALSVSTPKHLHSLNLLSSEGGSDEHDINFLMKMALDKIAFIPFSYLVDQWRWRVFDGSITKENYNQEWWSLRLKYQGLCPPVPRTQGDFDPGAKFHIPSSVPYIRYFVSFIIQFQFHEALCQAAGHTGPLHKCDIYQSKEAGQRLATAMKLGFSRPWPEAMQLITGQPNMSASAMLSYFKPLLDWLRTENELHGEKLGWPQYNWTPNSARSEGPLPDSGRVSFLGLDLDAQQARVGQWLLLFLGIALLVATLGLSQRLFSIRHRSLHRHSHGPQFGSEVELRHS

For the molecule “Tyr-Leu-Gly-Tyr-Leu (YLGYL; listed as Bos taurus) [αs1-casein fragment 91-95, Pentapeptide corresponding to positions 91-95 of αs1-casein]”, in the assay with Wistar rat [1] (setting [8]), the “difference versus diazepam in the light/dark box” value is recorded as “No significant difference”. Moreover, the “action in the light/dark box test” value with Wistar rat [1] (setting [9]) is listed as “anxiolytic-type action similar to that of diazepam”. In addition, in the assay on Wistar rat [1] (setting [10]), the “time spent in the familiar compartment” value is “increases significantly” and the “time spent in the unfamiliar, aversive compartment” value was “significantly lower”. Moreover, in assay [2], the “in vitro opiate activity” value is “practically inactive”. Moreover, the anxiolytic properties entry with rat [3] is given as “possible to demonstrate the anxiolytic properties”. Besides, the “difference versus diazepam in the elevated cross maze” value in the assay with Wistar rat [4] (setting [8]) is “No significant difference”. In the assay with Wistar rat [4] (0.5 mg/kg intraperitoneally one-half hour before open field, compared between treatments, n=15), the “number of entries into all of the arms (exploratory activity)” value was “not significantly different”. Besides, the “action in the elevated cross maze test” value in the assay on Wistar rat [4] (setting [9]) is given as “an action similar to that of diazepam, i.e. an increase in the exploration of anxiety-producing zones”. Moreover, in the assay on Wistar rat [4] (setting [11]), the “number of entries into the open arms” value is “significantly lower” and the “time spent in the open arms” value is “significantly lower”.

As for “90-96: αs1-casein peptide 90-96 (RYLGYLE; UniProt P02662 105-111, looked up, fragment) [reference compound]”, the “in vitro opiate activity” value in assay [2] is listed as “demonstrated in vitro opiate activity”.

Regarding “91-97: peptide 91-97 derived from decapeptide, not containing arginine 100 (YLGYLEQ; UniProt P02662 106-112, looked up, fragment)”, in the assay with rat [5], the anxiolytic properties result is on record as “show anxiolytic properties”.

As for `CN1C(=O)CN=C(c2ccccc2)c2cc(Cl)ccc21` [diazepam, reference compound], in the assay with Wistar rat [1] (setting [12]), the “time spent in the familiar compartment” value is “increases significantly” and the “time spent in the unfamiliar, aversive compartment” value is given as “significantly lower”. Besides, in the assay with Wistar rat [4] (setting [13]), the “number of entries into the open arms” value is given as “significantly lower” and the “time spent in the open arms” value was “significantly lower”.

In the case of “91-99: peptide 91-99 derived from decapeptide, not containing arginine 100 (YLGYLEQLL; UniProt P02662 106-114, looked up, fragment)”, in the assay with rat [5], the anxiolytic properties result is given as “show anxiolytic properties”.

Take “α-casozepine: αs1-casein fragment 91-100, decapeptide from αs1-casein tryptic hydrolysate (YLGYLEQLLR; UniProt P02662 106-115, looked up, fragment)”: in assay [6], the anxiolytic activity result was “original anxiolytic activity”.

Consider “90-95: αs1-casein peptide 90-95 (RYLGYL; UniProt P02662 105-110, looked up, fragment) [reference compound]”, for which the “in vitro opiate activity” value in assay [2] is on record as “demonstrated in vitro opiate activity”.

Regarding “194-199: αs1-casein peptide 194-199 (TTMPLW; UniProt P02662 209-214, looked up, fragment)”, the “angiotensin-I converting enzyme inhibition” value in assay [7] was “angiotensin-I converting enzyme inhibitors”.

Consider “91-98: peptide 91-98 derived from decapeptide, not containing arginine 100 (YLGYLEQL; UniProt P02662 106-113, looked up, fragment)”, for which the anxiolytic properties result in the assay on rat [5] is recorded as “show anxiolytic properties”.

On to “YLGYLE [91-96, Hexapeptide corresponding to positions 91-96 of αs1-casein]”, for which the “in vitro opiate activity” value in assay [2] is “practically inactive”. In addition, the anxiolytic properties result in the assay with rat [3] is listed as “possible to demonstrate the anxiolytic properties”.
